Earlier results as cited in patent publication US20210401968A1 (priority 2018, published 2021).
Where two headings read alike, the source gives them in different places.

Assays:
[1] = tested on: luciferase target gene
[2] = molecular target: T1, progesterone receptor-based transactivator (Homo sapiens, UniProt P06401); details: rats
T1 construct: host or cells: rats (host animal of the cited study)
T1 sequence (P06401 640-891, added parts left off): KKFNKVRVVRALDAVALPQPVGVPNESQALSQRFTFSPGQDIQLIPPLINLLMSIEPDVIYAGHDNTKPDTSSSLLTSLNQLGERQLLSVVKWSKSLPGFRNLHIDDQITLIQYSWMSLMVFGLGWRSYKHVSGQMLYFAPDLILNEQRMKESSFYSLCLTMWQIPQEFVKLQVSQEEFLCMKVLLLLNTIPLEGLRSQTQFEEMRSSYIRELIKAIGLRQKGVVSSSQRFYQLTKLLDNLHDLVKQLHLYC

With `CC#C[C@]1(O)CC[C@H]2[C@@H]3CCC4=CC(=O)CCC4=C3[C@@H](c3ccc(N(C)C)cc3)C[C@@]21C` [mifepristone] as the compound, how does the “duration of sustained target gene expression after a single heat treatment” value [1] read?
Its value is “at least 6 days”.

And the “target gene expression after heat treatment” value [1]?
Its value is “resulted in activation of target gene expression”.

And the “amount giving an effective concentration” value ([2]; i.p.)?
Its value is 5 µg/kg.

What about the “amount giving an effective concentration” value ([2]; orally) of the same compound?
The value was “about 10 μg/kg”.
